In the oligonucleotide strings, read from the 5' end, every base follows the letter of its sugar. An asterisk marks phosphorothioate; unmarked linkages are phosphodiester. Other units and linkages are bracketed, terminal groups are in braces. A string of capitals states the bases alone. e = 2'-O-(2-methoxyethyl) (MOE); [5mC] = 5-methylcytosine

For one substance, Fold change luciferase results are on record in patent publication US8178506B2, “Oligomeric compounds and compositions for use in modulation of small non-coding RNAs” (Regulus Therapeutics Inc., priority 2003, dated 2012).

The data set deals with mir-23b miRNA. Nature of the data set: pGL3-mir-23b sensor luciferase assay in HeLa cells. Format: cell-based, human. Particulars: pGL3-mir-23b sensor-expressing HeLa cells. From the text: In order to assess the ability of miRNAs to bind predicted miRNA binding sites and regulate the expression of the luciferase reporter, in some embodiments, expression systems based on the pGL3-Control (Promega Corp., Madison Wis.) reporter vector and comprising either a mir-15a, mir-21, or a mir-23b miRNA binding site were developed and used in transient transfections of HeLa cells to determine whether the endogenous mir-15a, mir-21, or mir-23b miRNAs, respectively, could repress luciferase reporter gene expression.
The pGL3-mir-23b sensor plasmid was created by cloning the sequence ([…]; SEQ ID NO: 307), representing a sequence complementary to the mir-23b miRNA, into the Xba site of the pGL3-Control plasmid, placing the potential miRNA-binding site in the 3′UTR of the luciferase reporter. This reporter plasmid was used to transfect HeLa cells and it was observed that the endogenous mir-23b miRNA was able to inhibit luciferase expression from the pGL3-mir-23b sensor plasmid. Thus, to further evaluate the ability of the mir-23b miRNA to bind this target site encoded by the pGL3-mir-23b sensor plasmid, and to assess the ability of oligomeric compounds to interfere with mir-23b-mediated silencing, pGL3-mir-23b sensor-expressing HeLa cells were treated with varying concentrations (1.3-, 5- or 20 nM) of the following oligomeric compounds: ISIS Number 327889 (SEQ ID NO: 307), a phosphorothioate uniform 2′-MOE oligomeric compound, and ISIS Number 340925 (SEQ ID NO: 307), a 2′-MOE 5-10-8 gapmer oligomeric compound, both targeting mir-23b. The uniform 2′-MOE phosphorothioate oligomeric compound ISIS Number 327924 (SEQ ID NO: 342) targeting an unrelated miRNA (mir-129-2) was used as a negative control. The data are the average of three trials, and are presented in Table 43 as relative luciferase activity (normalized to pRL-CMV luciferase plasmid only, not treated with oligomeric compound).

With “327889 (antisense eG*eT*eG*eG*eT*eA*eA*eT*e[5mC]*e[5mC]*e[5mC]*eT*eG*eG*e[5mC]*eA*eA*eT*eG*eT*eG*eA*eT) [compound 327889]”, the Fold change luciferase runs as follows: (1.3 nM) 3.75; (5 nM) 3.46; (20 nM) 7.40.
